pIC50, pKd: −log10 of the molar value.
What was measured:
hGDHH454Y [1] = target: T1, hGDHH454Y (Homo sapiens, UniProt P00367, H507Y); experiment: Trypsin degradation assay of hGDHH454Y (SDS-PAGE gel); assay type: biochemical
T1 construct: made in house; host or cells: E. coli BL21 codon plus (pET-30a)
Method: (§1) Trypsin (final concentration 20 μg/mL) were mixed with 1 mg/mL (final concentration) hGDH-H454Y or bovine-GDH or BSA, respectively, in Eppendorf (EP) tubes in a phosphate buffer (pH8; 10 mM Na3PO4, 50 mM K3PO4, 100 mM NH4HCO3, 0.1% Tween80 and 0.1% Tween). Then proteins were subjected to digestion in a wet chamber at 37 °C for 1 h. Each sample was analyzed by denaturing SDS-PAGE gel. All experiments were repeated 3 times.
(§2) 2.5 mg/mL bovine GDH (final concentration) or 2.5 mg/mL BSA proteins were mixed with various compounds (10 mM or 50 mM GTP; 0.05 mM or 5 mM EGCG) in EP tubes at room temperature for 1 h. To each tube, 20 μg/mL trypsin was added, and the reaction was carried out in a wet chamber at 37 °C for 1 h. Samples were analyzed by both denaturing SDS-PAGE gel and native-PAGE gel. All experiments were repeated 3 times.
(§3) The dried gel was placed in the imager and photographed after the bands were clear. The gray value of the bands was calculated on a uniform background using Image-J software (1.53a). The ratio of the gray value of the strips under each experimental condition to the gray value of the control strips was calculated, as it is the relative gray value of the strips under that experimental condition.

bovine GDH [2] = target: T2, bovine GDH (Bos taurus, UniProt P00366); experiment: GDH inhibition assay (EZMTT detection); assay type: biochemical; conditions: for increase in IC50 on increasing GDH concentration by 8 times: 0.3 to 2.5 mg/mL GDH
T2 construct: purchased
T2 sequence (P00366 58-558): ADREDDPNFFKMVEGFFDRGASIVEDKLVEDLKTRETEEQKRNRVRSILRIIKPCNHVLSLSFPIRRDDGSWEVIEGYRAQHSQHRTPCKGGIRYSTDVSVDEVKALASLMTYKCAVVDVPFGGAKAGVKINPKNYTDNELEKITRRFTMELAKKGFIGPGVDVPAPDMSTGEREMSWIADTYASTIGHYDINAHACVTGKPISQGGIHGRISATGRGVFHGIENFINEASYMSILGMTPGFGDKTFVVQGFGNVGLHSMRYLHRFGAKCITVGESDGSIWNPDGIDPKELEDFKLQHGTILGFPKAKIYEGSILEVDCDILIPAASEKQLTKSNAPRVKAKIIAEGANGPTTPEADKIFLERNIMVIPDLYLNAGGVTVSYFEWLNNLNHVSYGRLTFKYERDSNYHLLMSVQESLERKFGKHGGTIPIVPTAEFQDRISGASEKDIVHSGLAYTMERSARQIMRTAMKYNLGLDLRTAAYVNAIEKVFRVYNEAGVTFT
Method: Since both GTP and EGCG are known allosteric GDH inhibitors, we tested their dose-dependent inhibition of different levels of GDH protein. […] EGCG inhibition of GDH is less affected by the GDH enzyme concentration.
[…] After 0.5 h pre-incubation, a mixture of Glu (10 mM final), NADP^+ ([…]), and the EZMTT detection reagent were added to each well, and the reaction was carried out at room temperature for 1 h before the absorbance measurement at 450 nm. To exclude assay artifacts, controls with no GDH were also used, and all experiments were carried out in triplicate and repeated 3 times.

BSA = target: T3, BSA (Bos taurus, UniProt P02769); experiment: Trypsin degradation assay of BSA (SDS-PAGE gel); assay type: biochemical, bovine
T3 construct: purchased Biosharp
T3 sequence (P02769 25-607): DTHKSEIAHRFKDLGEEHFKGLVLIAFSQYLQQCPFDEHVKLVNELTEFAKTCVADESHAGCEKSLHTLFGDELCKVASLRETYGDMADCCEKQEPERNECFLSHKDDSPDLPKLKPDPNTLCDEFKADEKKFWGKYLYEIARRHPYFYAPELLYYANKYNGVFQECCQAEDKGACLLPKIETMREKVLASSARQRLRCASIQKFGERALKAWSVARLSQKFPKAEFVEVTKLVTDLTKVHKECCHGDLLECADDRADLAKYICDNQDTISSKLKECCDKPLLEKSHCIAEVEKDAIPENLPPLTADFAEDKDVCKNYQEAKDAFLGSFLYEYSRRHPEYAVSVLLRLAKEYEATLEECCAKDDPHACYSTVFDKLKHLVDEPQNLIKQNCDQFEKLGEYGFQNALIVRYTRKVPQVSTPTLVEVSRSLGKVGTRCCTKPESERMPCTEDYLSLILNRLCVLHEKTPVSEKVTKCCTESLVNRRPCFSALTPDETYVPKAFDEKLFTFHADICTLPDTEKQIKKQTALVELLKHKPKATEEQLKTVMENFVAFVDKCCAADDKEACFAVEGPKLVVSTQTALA
Method: as §1, §2, §3

bovine GDH [3] = target: T2, bovine GDH; experiment: Trypsin degradation assay of bovine GDH (SDS-PAGE gel); assay type: biochemical; conditions: 20 μg/mL trypsin; for effect on trypsin digestion of Bo.GDH: low and high concentrations (GTP 10 or 50 mM; EGCG 0.05 or 5 mM), 37 °C 1 h
Method: as §1, §2, §3

bovine GDH hexamer = target: T4, bovine GDH hexamer (Bos taurus, UniProt P00366); experiment: Native-PAGE gel analysis of interaction of EGCG, bovine GDH and trypsin; assay type: biochemical
T4 construct: purchased
T4 sequence (P00366 58-558): as the sequence (P00366 58-558) above
Source text: To further understand the mechanism of EGCG promoting GDH protein degradation, we investigated the interactions among EGCG, GDH, and trypsin by native gel analysis. Because the bovine GDH protein sequence shares 98% homology with the human GDH sequence and 100% homology similarity in the substrate and regulatory binding sites, we used bovine GDH as a substitute for wild-type human GDH in our studies. […] Taken together, the mechanism might be the following: binding of EGCG to hexametric GDH breaks down the hexamer into monomers, and further EGCG–trypsin complex facilitates the GDH degradation.
as §2, §3

wild-type hGDH = target: T5, wild-type hGDH (Homo sapiens, UniProt P00367); experiment: Biolayer interference-based binding assay (Ni-NTA biosensor), wild-type hGDH; conditions: His-tagged wild-type hGDH 20 μg/mL on Ni-NTA biosensor; read-out: estimated KD
T5 construct: confirming that these are the full-length wild-type hGDH; made in house; host or cells: E. coli BL21 (pET-30a)
T5 sequence (P00367 54-558): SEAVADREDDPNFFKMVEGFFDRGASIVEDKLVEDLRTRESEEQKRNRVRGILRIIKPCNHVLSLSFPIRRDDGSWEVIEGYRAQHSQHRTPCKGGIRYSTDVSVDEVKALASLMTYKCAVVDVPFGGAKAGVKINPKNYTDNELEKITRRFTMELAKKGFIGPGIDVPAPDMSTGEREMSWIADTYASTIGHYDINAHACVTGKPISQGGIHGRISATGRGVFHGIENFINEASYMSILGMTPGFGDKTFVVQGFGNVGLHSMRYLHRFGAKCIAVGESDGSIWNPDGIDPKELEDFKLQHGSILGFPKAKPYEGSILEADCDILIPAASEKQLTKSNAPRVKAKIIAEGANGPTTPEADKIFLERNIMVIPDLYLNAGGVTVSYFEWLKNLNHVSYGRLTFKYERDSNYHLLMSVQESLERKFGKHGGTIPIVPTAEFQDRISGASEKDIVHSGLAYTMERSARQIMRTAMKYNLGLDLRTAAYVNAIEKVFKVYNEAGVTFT
Method: (§4) After immobilization of His-tagged wild-type GDH or hGDHH454Y (20 μg/mL) on a Ni-NTA biosensor, the probe was immersed in a series of dilutions of EGCG to measure binding.
(§5) The inhibitor/substrate binding assays were performed in 3 steps: step one is coating the Ni-NTA biosensor with the human wild type and the mutant GDH proteins (20 μg/mL) for 30 min; step two is dipping the coated individual sensor into a series dilution of substrates or inhibitors, such as EGCG (0, 1, 10, 100, 1000, 10000 μM; 10-fold dilution) or trypsin (0, 0.08, 0.25, 0.75, 2.25, 6.75 μM; 3-fold dilution) for 100 s, to obtain the on-rate (kon); step three is dipping to wash with phosphate-buffered saline (PBS) for 100 s. to measure the off-rate (koff). The KD was calculated by dividing […].

hGDHH454Y [4] = experiment: Biolayer interference-based binding assay (Ni-NTA biosensor), hGDHH454Y; design: species or system human; conditions: KD hGDHH454Y versus wild-type
Method: as §4, §5

hGDHH454Y [5] = target: T1, hGDHH454Y; experiment: as above; conditions: His-tagged hGDHH454Y 20 μg/mL on Ni-NTA biosensor; read-out: estimated KD
Method: as §4, §5

[6] = high concentrations: 50 mM GTP, 5 mM EGCG
[7] = lower concentrations: GTP 10 mM, EGCG 0.05 mM
[8] = 20 μg/mL trypsin, 1 mg/mL protein, 1 h

T1 sequence (P00367 54-558 H507Y): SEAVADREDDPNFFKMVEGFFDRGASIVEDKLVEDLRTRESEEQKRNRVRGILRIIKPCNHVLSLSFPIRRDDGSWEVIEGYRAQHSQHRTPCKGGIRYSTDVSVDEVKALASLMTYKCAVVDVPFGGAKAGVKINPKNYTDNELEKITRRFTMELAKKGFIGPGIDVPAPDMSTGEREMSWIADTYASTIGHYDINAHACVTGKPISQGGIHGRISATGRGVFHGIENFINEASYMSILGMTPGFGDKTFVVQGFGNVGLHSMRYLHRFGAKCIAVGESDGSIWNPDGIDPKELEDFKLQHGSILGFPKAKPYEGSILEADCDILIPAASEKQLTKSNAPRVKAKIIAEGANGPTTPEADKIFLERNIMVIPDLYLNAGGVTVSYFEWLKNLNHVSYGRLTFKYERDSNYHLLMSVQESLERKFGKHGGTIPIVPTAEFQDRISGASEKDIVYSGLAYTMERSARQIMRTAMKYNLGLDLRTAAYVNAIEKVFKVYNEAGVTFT

Molecule | effect on hGDHH454Y hydrolysis by trypsin (hGDHH454Y [1]; GTP up to 50 mM) | increase in IC50 on increasing GDH concentration by 8 times (bovine GDH [2]) | pIC50 (bovine GDH [2]; bovine GDH 0.3 mg/mL) | pIC50 (bovine GDH [2]; bovine GDH 2.5 mg/mL) | effect on trypsin digestion of BSA (BSA; [6]) | effect on trypsin digestion of BSA (BSA; [7]) | effect on trypsin digestion of Bo.GDH (bovine GDH [3]) | degradation by trypsin alone (hGDHH454Y [1]; [8]) | effect on hexamers of bovine GDH (bovine GDH hexamer; trypsin 20–500 μg/mL) | pKd (wild-type hGDH) | fold stronger affinity (KD) for wild-type GDH than for the H454Y mutant (hGDHH454Y [4]) | pKd (hGDHH454Y [5]) | degradation by trypsin alone (BSA; [8]) | degradation by trypsin alone (bovine GDH [3]; 1 mg/mL protein, 1 h) | effect on hGDHH454Y hydrolysis by trypsin (hGDHH454Y [1]; 5 mM EGCG) | effect on hexamers of bovine GDH (bovine GDH hexamer; 5 mM EGCG) | monomeric GDH degradation by trypsin (bovine GDH hexamer; 5 mM EGCG added to GDH and 20 μg/mL trypsin)
Nc1nc2c(ncn2[C@@H]2O[C@H](COP(=O)(O)OP(=O)(O)OP(=O)(O)O)[C@@H](O)[C@H]2O)c(=O)[nH]1 [GTP] | no effect | 1000 fold | 4.80 | 1.77 | prevented BSA digestion | essentially no significant effect | prevented the trypsin digestion |  |  |  |  |  |  |  |  |  | 
Trypsin |  |  |  |  |  |  |  | did not show observable degradation | converted to monomers | > 12.00 | 10^9 fold | 2.82 | significant hydrolysis | significant hydrolysis |  |  | 
O=C(O[C@@H]1Cc2c(O)cc(O)cc2O[C@@H]1c1cc(O)c(O)c(O)c1)c1cc(O)c(O)c(O)c1 [EGCG, (−)-cis-2-(3,4,5-trihydroxyphenyl)-3,4-dihydro-1(2H)-benzopyran-3,5,7-triol 3-gallate] |  | 50 fold | 5.57 | 3.86 | promoted BSA degradation | essentially no significant effect | greatly increased trypsin digestion in a dose-dependent manner |  |  | 5.38 | 17 fold | 4.17 |  |  | promote | converted to monomers | more monomeric GDH degradation was observed
